According to patent publication US9914698B2, “Stearoyl amino acid salt and preparation method and application thereof” (Shanghai Jiaotong University School of Medicine, priority 2014, dated 2018):
Like-named read-outs stand apart in the source and are kept apart here. Marks after values point to notes of the source that are not given here.

Assays:
[1] = Apparent lipid-water distribution coefficient; assay type: physicochemical
Method: (§1) The shake-flask method was used to test the equilibrium solubility of NsTyr, NsTyr-2K, NsTyr-2Na in water at 37° C. […] The apparent lipid-water distribution coefficient log p of NsTyr-2K, NsTyr-2Na was respectively 1.512 and 1.477. Under different pHs, see Table 1 for the equilibrium solubility test data of NsTyr-2K, NsTyr-2Na; and see Table 2 for the apparent lipid-water distribution coefficient of NsTyr-2K and NsTyr-2Na.

Acute toxicity test = conditions: mouse, in vivo; oral, Kunming mice
Description: (§2) After oral administration of NsTyr-2K, the mice were weighed. […] However, their weight followed up rapidly as food intake recovered.
(§3) After 15-day administration of NsTyr-2K, the mouse organs (brain, heart, lung, liver and kidney) were studied to see if there was any change.
(§4) This means that mouse brain tissues had not been severely damaged under such dose, and that NsTyr-2K had high safety. Even so, it is necessary to conduct further long-term safety assessment of any possible side effect of NsTyr-2K on liver and hear in the following medicinal research and to precisely determine the amount of administration required.

Kunming mice = experiment: Acute toxicity test; conditions: mouse, in vivo
Description: as §2, §3, §4

[2] = Stability assessment (influencing factors, acceleration and long-term tests, Chinese Pharmacopoeia 2010); assay type: physicochemical; conditions: high temperature, high humidity, strong light
Method: Considering that prototype drug stearoyl amino acid tend to absorb moisture, cake and become yellowish during long-term storage, the stearoyl amino acid is now converted into a form of active salt thereof. And the stability of NsTyr-2K and NsTyr-2Na was tested as required for bulk pharmaceutical chemicals according to the People's Republic of China Pharmacopoeia 2010.

[3] = tested on: gerbil model with global ischemia reperfusion injury; experiment: Morris water maze test (cerebral ischemia); assay type: in vivo
Description: (§5) Taking N-stearoyl amino acid potassium NsTyr-2K as an example, a gerbil model with global ischemia reperfusion injury was used to assess the protective role of NsTyr-2K against neurobehavioral disorder caused by cerebral ischemia-reperfusion injury by examining the changing behavioral indexes such as spatial, learning and cognitive functions in the perspective of overall animals during passive dark avoidance test and Morris water maze test.
Up to day 4, for normal animals their latency fell to 29.8+/−12.55 s, and their swimming distance to 3,216.5+/−1,026.46 cm. From day 1 to day 2, there was no evident difference in the average latency before reaching the platform and the swimming distance prior to going onto the platform between the ischemia group of gerbils and any of the other groups. As training sessions increased, the latency and swimming distance of each group of gerbils before reaching the platform was shortened. The gap between the ischemia group and any of the other groups began to widen and reached the record on day 4.

obese mouse model [4] = experiment: H&E staining of fat and liver tissue of obese mice; assay type: in vivo, C57BL/6 mice
Method: 2. Method: Epididymal fat and liver were fixed in 10% neutral formaldehyde solution for 48 h. After paraffin embedding they were made into […] of slices, and stained with hematoxylin-eosin (H&E staining). Light microscope was used to observe the size of fat cells, the structure of liver cells and adipose accumulation.

[5] = tested on: gerbil model with global ischemia reperfusion injury; experiment: Dark avoidance test; assay type: in vivo; conditions: compared with the ischemia group; NsTyr-2K 15, 30, 60 mg/kg; nimotop positive control
Description: as §5
Dark avoidance test was used to evaluate the effects of NsTyr-2K influence on animal learning and memory abilities.

obese mouse model [6] = experiment: Administration test in obese mouse model (weight, food intake); assay type: in vivo, C57BL/6 mice; conditions: for obese mouse weight: four weeks
Method: 2. Method: 60 C57BL/6 mice (aged 3 weeks, male, with a weight of 8.3 g each) were adaptively fed with 12% kcal normal diet for one week, and randomly divided into 6 groups, each consisting of 10 mice. One group (ND) continued to be fed with normal diet, the rest five groups (HFD I˜V) were fed with 45% kcal high-fat diet.
In the whole test process the mice kept raised in the following environment: temperature: 23±3° C.; humidity: 50±5%; bright and dim alternating cycle: 12 h/12 h; freely available to diet and drinking water in the whole process.
2. Method: ND and HFD I were respectively taken as normal and high-fat diet blank control groups, and were treated with 0.5% sodium carboxymethyl cellulose solution (5 ml/kg/day); HFD II˜IV were taken as groups of recipients, and were treated with NST-2K (20, 60, 100 mg/kg/day); HFD V was taken as a positive control group, and treated with Orlistat (100 mg/kg/day). All the above drugs dissolved in aqueous solution of 0.5% sodium carboxymethyl cellulose and were administered. The administration remained four weeks. In each week average weight and food intake were kept in record until the phase of administration ended.

[7] = Equilibrium solubility, shake-flask method; assay type: physicochemical; conditions: 37 °C, thermodynamic from solid, read-out: Equilibrium solubility in buffer solution
Method: as §1

obese mouse model [8] = experiment: Collection and observation of fat and liver tissues of obese mice; assay type: in vivo, C57BL/6 mice; conditions: for perirenal fat percentage quality: HFD I blank 1.63 ± 0.10; for Epididymal fat percentage quality: HFD I blank 2.99 ± 0.08; for Liver percentage quality: HFD I blank 3.51 ± 0.07
Description: 2. Method: After administration test in Embodiment 8, the mice were denied food overnight. Their abdominal cavity was opened to observe abdominal fat content in each group of the mice. Epididymal fat, perirenal fat and liver were separated and weighed.

In the case of `CCCCCCCCCCCCCCCCCC(=O)N[C@@H](Cc1ccc(O)cc1)C(=O)[O-].[K+]` [NsTyr-2K, N-stearoyl tyrosine potassium salt], the logP [1] is reported as 1.51, the “Apparent lipid-water distribution coefficient Ko/w” value ([1]; buffer pH 2.0) is reported as 76.020 and the logP ([1]; buffer pH 2.0, read-out: Apparent lipid-water distribution coefficient LogP) is reported as 1.88. The “Apparent lipid-water distribution coefficient Ko/w” value ([1]; buffer pH 3.0) was 30.571, the logP ([1]; buffer pH 3.0, read-out: Apparent lipid-water distribution coefficient LogP) was 1.49 and the “Apparent lipid-water distribution coefficient Ko/w” value ([1]; buffer pH 4.0) was 16.020. For the same molecule, the logP ([1]; buffer pH 4.0, read-out: Apparent lipid-water distribution coefficient LogP) was 1.21, the “Apparent lipid-water distribution coefficient Ko/w” value ([1]; buffer pH 5.0) was 21.934 and the logP ([1]; buffer pH 5.0, read-out: Apparent lipid-water distribution coefficient LogP) was 1.34. For the same molecule, the “Apparent lipid-water distribution coefficient Ko/w” value ([1]; buffer pH 6.0) was 28.935, the logP ([1]; buffer pH 6.0, read-out: Apparent lipid-water distribution coefficient LogP) was 1.46 and the “Apparent lipid-water distribution coefficient Ko/w” value ([1]; buffer pH 7.0) was 37.855. For the same molecule, the logP ([1]; buffer pH 7.0, read-out: Apparent lipid-water distribution coefficient LogP) was 1.58, the “Apparent lipid-water distribution coefficient Ko/w” value ([1]; buffer pH 7.4) was 16.674 and the logP ([1]; buffer pH 7.4, read-out: Apparent lipid-water distribution coefficient LogP) was 1.22. For the same molecule, the “Apparent lipid-water distribution coefficient Ko/w” value ([1]; buffer pH 8.0) was 13.797, the logP ([1]; buffer pH 8.0, read-out: Apparent lipid-water distribution coefficient LogP) was 1.14 and the “Apparent lipid-water distribution coefficient Ko/w” value ([1]; buffer pH 9.0) was 13.140. The logP ([1]; buffer pH 9.0, read-out: Apparent lipid-water distribution coefficient LogP) was 1.12, the LD50 at 15 days (Acute toxicity test) was > 2000 mg/kg and the behavioral abnormality (Kunming mice) was “no evidence of behavioral abnormality except loss of appetite and weight”. For the same molecule, the organ coefficient (Kunming mice) was “exerted certain influence upon mouse brain, heart and liver coefficients”, the stability [2] was “stable properties” and the “period before finding the underwater platform and swimming distance” value ([3]; 15 mg/kg, compared with the model group) was “no obvious difference”. The “time percentage and swimming distance percentage in the first quadrant (probe test)” value ([3]; day 5, platform removed, against ischemia group, NsTyr-2K 30 and 60 mg/kg, nimotop control) was “statistical difference”, the “period before finding the underwater platform and swimming distance” value ([3]; days 3 and 4, compared with the ischemia group, NsTyr-2K 30 and 60 mg/kg, nimotop positive control) was “a shortened period before finding the underwater platform and a shortened swimming distance” and the “size of epididymal fat cells” value (obese mouse model [4]; HFD III, HFD IV (NST-2K 60, 100 mg/kg/day) and HFD V (Orlistat 100 mg/kg/day) vs HFD I) was “evidently smaller fat cells than HFD I”. For the same molecule, the “fat accumulation in liver tissues” value (obese mouse model [4]; as the administration dose increased, vs HFD I) was “the accumulation began to ease”, the “size of epididymal fat cells” value (obese mouse model [4]; low-dose (20 mg/kg/day)) was “could not significantly shrink fat cells” and the “error counts within 5 min” value [5] was “much fewer error counts within 5 min”. For the same molecule, the latency [5] was “much prolonged latency”, the obese mouse weight (obese mouse model [6]; 100 mg/kg/day) was “can reduce obese mouse weight” and the “appetite (average daily food intake)” value (obese mouse model [6]; 4-week administration, high-fat diet groups) was “neither NST-2K nor Orlistat suppressed appetite”. For the same molecule, the obese mouse weight (obese mouse model [6]; 20, 60 mg/kg/day) was “can inhibit weight gain in obese mice”, the solubility thermodynamic ([7]; aqueous buffer, pH 2.0) was 49.3 µg/mL and the solubility thermodynamic ([7]; aqueous buffer, pH 3.0) was 58.5 µg/mL. It also gave a solubility thermodynamic ([7]; aqueous buffer, pH 4.0) of 188 µg/mL, a solubility thermodynamic ([7]; aqueous buffer, pH 5.0) of 221 µg/mL and a solubility thermodynamic ([7]; aqueous buffer, pH 6.0) of 243 µg/mL. The solubility thermodynamic ([7]; aqueous buffer, pH 7.0) was 251 µg/mL, the solubility thermodynamic ([7]; aqueous buffer, pH 8.0) was 286 µg/mL and the solubility thermodynamic ([7]; aqueous buffer, pH 9.0) was 370 µg/mL. The solubility thermodynamic ([7]; pH 7.4, aqueous buffer) was 270 µg/mL, the “perirenal fat percentage quality” value (obese mouse model [8]; 20 mg/kg/day) was 1.51 ± 0.07 g/100 g weight and the “Epididymal fat percentage quality” value (obese mouse model [8]; 20 mg/kg/day) was 2.94 ± 0.11 g/100 g weight. The Liver percentage quality (obese mouse model [8]; 20 mg/kg/day) was 3.47 ± 0.05 g/100 g weight, the “perirenal fat percentage quality” value (obese mouse model [8]; 60 mg/kg/day) was 1.37 ± 0.04 g/100 g weight and the “Epididymal fat percentage quality” value (obese mouse model [8]; 60 mg/kg/day) was 2.72 ± 0.07 g/100 g weight. The Liver percentage quality (obese mouse model [8]; 60 mg/kg/day) was 3.41 ± 0.06***^ g/100 g weight, the “perirenal fat percentage quality” value (obese mouse model [8]; 100 mg/kg/day) was 1.26 ± 0.05 g/100 g weight and the “Epididymal fat percentage quality” value (obese mouse model [8]; 100 mg/kg/day) was 2.64 ± 0.08 g/100 g weight. The Liver percentage quality (obese mouse model [8]; 100 mg/kg/day) was 3.46 ± 0.07***^ g/100 g weight, the abdominal fat pad (obese mouse model [8]; increasing doses 20, 60, 100 mg/kg/day, compared with HFD I) was “the abdominal fat pad showed a shrinking trend” and the “abdominal fat quality, compared with Orlistat” value (obese mouse model [8]; same dose (100 mg/kg)) was “better effects in reducing abdominal fat quality than Orlistat”.
